Results from patent US12247106B2, “Onium-functionalized siloxanes” (Henkel AG & Co. KGaA, priority 2019, dated 2025).

Tests used:
Assay in all cases: Kirby-Bauer Test (Zone of Inhibition), agar diffusion
Type in all cases: cell-based
[1] = tested on: Aspergillus brasiliensis (ATCC 16404)
Method: (§1) Kirby-Bauer Test (Zone of Inhibition):
(§2) The Kirby-Bauer Test is also known as Agar Diffusion Test and can be used for determination of antimicrobial activity in combination with diffusion properties. […] A suspension of the bacterial or fungal strain of interest is spread evenly over the face of a sterile agar plate. The antimicrobial test substrate (preferential liquid aggregation state) is applied to the center of the agar plate onto a small filter paper. The agar plate is incubated for a defined time at a temperature suitable for the test microorganisms. If the test substrate leaches from the filter paper into the agar and it further contains antimicrobial activity, a zone of inhibition is formed around the filter paper.

[2] = tested on: Exophiala dermatitidis (isolate)
Method: as §1, §2

[3] = tested on: Staphylococcus aureus (ATCC 6538)
Method: as §1, §2

[4] = dilution ratio 1:10, maximum 45 mm
[5] = dilution ratio 1:100, maximum 45 mm

Compound | Zone of Inhibition ([1]; undiluted, maximum 45 mm) [mm] | Zone of Inhibition ([2]; undiluted, maximum 45 mm) [mm] | Zone of Inhibition ([3]; undiluted, maximum 45 mm) [mm] | Zone of Inhibition [1, 4] [mm] | Zone of Inhibition [1, 5] [mm] | Zone of Inhibition [2, 4] [mm] | Zone of Inhibition [2, 5] [mm] | Zone of Inhibition [3, 4] [mm] | Zone of Inhibition [3, 5] [mm]
CCCCn1ccnc1 [1-Butyl-1H-imidazole] | 5.0 | 15.0 | 11.0 | – | – | – | – | – | –
Cn1ccnc1 [1-methyl-1H-imidazole] | 3.5 | 12.3 | 6.5 | 0.0 | 0.0 | 0.0 | 0.0 | 0.0 | 0.0
c1ccncc1 [Pyridine] | 0.0 | 1.0 | 1.0 | 0.0 | 0.0 | 0.0 | 0.0 | 0.0 | 0.0
